13 compounds from US10780090B2, “Heteroaryl compounds useful as inhibitors of SUMO activating enzyme” (Millennium Pharmaceuticals, Inc., priority 2014, dated 2020) can be followed below.

This assay concerns the target recombinant human SAE enzyme (Homo sapiens (Human), UniProt Q9UBT2). Description: SAE HTRF enzyme assay. In kind it is biochemical. The gist of the method:
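HTRF read-out using Eu-cryptate anti-Flag and allophycocyanin anti-GST antibodies, added with EDTA stop buffer and read after 2 h at 24 °C. The preceding reaction ran 105 min at 24 °C: 0.11 nM recombinant SAE, 0.5 μM ATP, Sumo-Flag, Ubc9-GST, pH 7.5. Values given as single-concentration inhibition or IC50.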
(In TR-FRET formats the signal depends on donor and acceptor labels being close together.)

The mark [1] stands for this setting: SAE inhibition at compound concentration 0.111 μM.
[2] abbreviates: SAE inhibition, class symbols, legend in nM.

recombinant human SAE enzyme, sequence (Q9UBT2 whole entry): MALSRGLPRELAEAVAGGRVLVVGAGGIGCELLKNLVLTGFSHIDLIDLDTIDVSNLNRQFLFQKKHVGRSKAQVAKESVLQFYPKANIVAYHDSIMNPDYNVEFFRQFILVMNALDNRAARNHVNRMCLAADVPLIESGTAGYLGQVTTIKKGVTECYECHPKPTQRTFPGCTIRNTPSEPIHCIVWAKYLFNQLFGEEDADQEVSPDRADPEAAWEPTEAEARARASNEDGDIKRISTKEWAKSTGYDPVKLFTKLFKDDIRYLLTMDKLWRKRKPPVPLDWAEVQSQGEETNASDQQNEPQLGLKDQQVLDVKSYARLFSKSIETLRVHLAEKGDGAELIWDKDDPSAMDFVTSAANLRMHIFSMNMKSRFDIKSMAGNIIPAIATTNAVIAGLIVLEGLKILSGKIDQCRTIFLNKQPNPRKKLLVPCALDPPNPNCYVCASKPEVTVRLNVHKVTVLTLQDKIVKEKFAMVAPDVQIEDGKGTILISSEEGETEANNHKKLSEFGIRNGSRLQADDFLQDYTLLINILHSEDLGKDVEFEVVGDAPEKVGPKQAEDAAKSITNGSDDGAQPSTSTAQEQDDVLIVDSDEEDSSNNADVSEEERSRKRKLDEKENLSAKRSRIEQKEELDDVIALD
recombinant human SAE enzyme, sequence (Q9UBE0 whole entry partner): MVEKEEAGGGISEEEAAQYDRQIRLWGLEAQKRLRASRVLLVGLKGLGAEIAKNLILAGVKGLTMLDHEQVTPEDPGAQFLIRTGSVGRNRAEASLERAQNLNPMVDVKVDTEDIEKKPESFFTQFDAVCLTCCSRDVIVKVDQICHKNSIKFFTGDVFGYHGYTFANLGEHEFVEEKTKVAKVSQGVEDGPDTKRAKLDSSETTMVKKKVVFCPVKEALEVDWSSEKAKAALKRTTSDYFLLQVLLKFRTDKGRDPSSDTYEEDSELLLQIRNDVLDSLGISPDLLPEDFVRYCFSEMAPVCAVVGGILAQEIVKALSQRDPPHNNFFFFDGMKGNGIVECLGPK

Regarding `NS(=O)(=O)OC[C@H]1C[C@@H](Nc2ncncc2C(=O)c2cc([C@@H]3OCCc4ccc(Br)cc43)cs2)C[C@@H]1O.NS(=O)(=O)OC[C@H]1C[C@@H](Nc2ncncc2C(=O)c2cc([C@H]3OCCc4ccc(Br)cc43)cs2)C[C@@H]1O` (mixture of isomers) [I-268, [(1R,2S,4R)-4-{[5-({4-[(1R)-7-bromo-3,4-dihydro-1H-isochromen-1-yl]-2-thienyl}carbonyl)pyrimidin-4-yl]amino}-2-hydroxycyclopentyl]methyl sulfamate and [(1R,2S,4R)-4-{[5-({4-[(1S)-7-bromo-3,4-dihydro-1H-isochromen-1-yl]-2-thienyl}carbonyl)pyrimidin-4-yl]amino}-2-hydroxycyclopentyl]methyl sulfamate], under “Concentration 0.111 μM”, the “Percent Inhibition” value is 100. Besides, the IC50 (class symbols A/B/C) was less than 10 nM.

For `Cc1sc(C(=O)c2cncnc2N[C@@H]2C[C@H](COS(N)(=O)=O)[C@@H](O)C2)cc1[C@@H]1OCCc2ccsc21` (mixture of isomers) [I-269, [(1R,2S,4R)-4-{[5-({4-[(7S)-4,7-dihydro-5H-thieno[2,3-c]pyran-7-yl]-5-methyl-2-thienyl}carbonyl)pyrimidin-4-yl]amino}-2-hydroxycyclopentyl]methyl sulfamate and [(1R,2S,4R)-4-{[5-({4-[(7R)-4,7-dihydro-5H-thieno[2,3-c]pyran-7-yl]-5-methyl-2-thienyl}carbonyl)pyrimidin-4-yl]amino}-2-hydroxycyclopentyl]methyl sulfamate], the “Percent Inhibition” value (Concentration 0.111 μM) was 99. The IC50 (class symbols A/B/C) is less than 10 nM.

In the case of `Cc1oc(C(=O)c2cncnc2N[C@@H]2C[C@H](COS(N)(=O)=O)[C@@H](O)C2)cc1[C@@H]1OCCc2ccc(Cl)cc21` (mixture of isomers) [I-270, {(1R,2S,4R)-4-[(5-{4-[(1R)-7-chloro-3,4-dihydro-1H-isochromen-1-yl]-5-methyl-2-furoyl}pyrimidin-4-yl)amino]-2-hydroxycyclopentyl}methyl sulfamate and {(1R,2S,4R)-4-[(5-{4-[(1S)-7-chloro-3,4-dihydro-1H-isochromen-1-yl]-5-methyl-2-furoyl}pyrimidin-4-yl)amino]-2-hydroxycyclopentyl}methyl sulfamate], the “Percent Inhibition” value (Concentration 0.111 μM) was found to be 99. Besides, for the setting “class symbols A/B/C”, the IC50 is less than 10 nM.

On to `NS(=O)(=O)OC[C@H]1C[C@@H](Nc2ncncc2C(=O)c2cc([C@@H]3NCCc4ccc(Cl)cc43)cs2)C[C@@H]1O` (mixture of isomers) [I-274, [(1R,2S,4R)-4-{[5-({4-[(1R)-7-chloro-1,2,3,4-tetrahydroisoquinolin-1-yl]-2-thienyl}carbonyl)pyrimidin-4-yl]amino}-2-hydroxycyclopentyl]methyl sulfamate and [(1R,2S,4R)-4-{[5-({4-[(1S)-7-chloro-1,2,3,4-tetrahydroisoquinolin-1-yl]-2-thienyl}carbonyl)pyrimidin-4-yl]amino}-2-hydroxycyclopentyl]methyl sulfamate], for which, where the note is “Concentration 0.111 μM”, the “Percent Inhibition” value is on record as 100. The IC50 (class symbols A/B/C) was less than 10 nM.

Consider `Cc1sc(C(=O)c2cncnc2N[C@@H]2C[C@H](COS(N)(=O)=O)[C@@H](O)C2)cc1[C@@H]1OCCc2sccc21` (mixture of isomers) [I-275, [(1R,2S,4R)-4-{[5-({4-[(4S)-6,7-dihydro-4H-thieno[3,2-c]pyran-4-yl]-5-methyl-2-thienyl}carbonyl)pyrimidin-4-yl]amino}-2-hydroxycyclopentyl]methyl sulfamate and [(1R,2S,4R)-4-{[5-({4-[(4R)-6,7-dihydro-4H-thieno[3,2-c]pyran-4-yl]-5-methyl-2-thienyl}carbonyl)pyrimidin-4-yl]amino}-2-hydroxycyclopentyl]methyl sulfamate], for which, where the note is “Concentration 0.111 μM”, the “Percent Inhibition” value came to 97. Also, the IC50 (class symbols A/B/C) is less than 10 nM.

Consider `NS(=O)(=O)OCC1CC(Nc2ncncc2C(=O)c2cc(C3OCCc4ccc(Cl)nc43)c(Cl)s2)CC1O` (mixture of isomers) [I-276, [(1R,2S,4R)-4-{[5-({5-chloro-4-[(8S)-2-chloro-5,8-dihydro-6H-pyrano[3,4-b]pyridin-8-yl]-2-thienyl}carbonyl)pyrimidin-4-yl]amino}-2-hydroxycyclopentyl]methyl sulfamate and [(1R,2S,4R)-4-{[5-({5-chloro-4-[(8R)-2-chloro-5,8-dihydro-6H-pyrano[3,4-b]pyridin-8-yl]-2-thienyl}carbonyl)pyrimidin-4-yl]amino}-2-hydroxycyclopentyl]methyl sulfamate], for which the “Percent Inhibition” value (Concentration 0.111 μM) was determined as 98. Also, the IC50 (class symbols A/B/C) was less than 10 nM.

With `Cc1sc(C(=O)c2cncnc2N[C@@H]2C[C@H](COS(N)(=O)=O)[C@@H](O)C2)cc1[C@@H]1OCCc2ccc(C3CC3)cc21` (mixture of isomers) [I-277, [(1R,2S,4R)-4-{[5-({4-[(1R)-7-cyclopropyl-3,4-dihydro-1H-isochromen-1-yl]-5-methyl-2-thienyl}carbonyl)pyrimidin-4-yl]amino}-2-hydroxycyclopentyl]methyl sulfamate and [(1R,2S,4R)-4-{[5-({4-[(1S)-7-cyclopropyl-3,4-dihydro-1H-isochromen-1-yl]-5-methyl-2-thienyl}carbonyl)pyrimidin-4-yl]amino}-2-hydroxycyclopentyl]methyl sulfamate], the “Percent Inhibition” value (Concentration 0.111 μM) came to 99. Where the note is “class symbols A/B/C”, the IC50 was less than 10 nM.

With `NS(=O)(=O)OC[C@H]1C[C@@H](Nc2ncncc2C(=O)c2cc([C@@H]3SCCc4ccc(Cl)cc43)cs2)[C@H](O)[C@@H]1O` (mixture of isomers) [I-278, [(1R,2R,3S,4R)-4-{[5-({4-[(1R)-7-chloro-3,4-dihydro-1H-isothiochromen-1-yl]-2-thienyl}carbonyl)pyrimidin-4-yl]amino}-2,3-dihydroxycyclopentyl]methyl sulfamate and [(1R,2R,3S,4R)-4-{[5-({4-[(1S)-7-chloro-3,4-dihydro-1H-isothiochromen-1-yl]-2-thienyl}carbonyl)pyrimidin-4-yl]amino}-2,3-dihydroxycyclopentyl]methyl sulfamate], for the setting “Concentration 0.111 μM”, the “Percent Inhibition” value was 98. Further, the IC50 (class symbols A/B/C) was less than 10 nM.

Take `Cc1sc(C(=O)c2cncnc2N[C@@H]2C[C@H](COS(N)(=O)=O)[C@@H](O)C2)cc1[C@H]1OCOc2ccccc21` (mixture of isomers) [I-280, [(1R,2S,4R)-4-{[5-({4-[(4R)-4H-1,3-benzodioxin-4-yl]-5-methyl-2-thienyl}carbonyl)pyrimidin-4-yl]amino}-2-hydroxycyclopentyl]methyl sulfamate and [(1R,2S,4R)-4-{[5-({4-[(4S)-4H-1,3-benzodioxin-4-yl]-5-methyl-2-thienyl}carbonyl)pyrimidin-4-yl]amino}-2-hydroxycyclopentyl]methyl sulfamate]: under setting [1], the “Percent Inhibition” value worked out at 98%. Moreover, the IC50 under setting [2] was less than 10 nM.

`NS(=O)(=O)OC[C@H]1C[C@@H](Nc2ncncc2C(=O)c2cc([C@H]3OCC4(CC4)c4ccccc43)cs2)C[C@@H]1O` (mixture of isomers) [I-281, [(1R,2S,4R)-2-hydroxy-4-{[5-({4-[(1′R)-1′H-spiro[cyclopropane-1,4′-isochromen]-1′-yl]-2-thienyl}carbonyl)pyrimidin-4-yl]amino}cyclopentyl]methyl sulfamate and [(1R,2S,4R)-2-hydroxy-4-{[5-({4-[(1′S)-1′H-spiro[cyclopropane-1,4′-isochromen]-1′-yl]-2-thienyl}carbonyl)pyrimidin-4-yl]amino}cyclopentyl]methyl sulfamate]: the “Percent Inhibition” value under setting [1] worked out at 98%. The IC50 under setting [2] is less than 10 nM.

For the compound `NS(=O)(=O)OCC1CC(Nc2ncncc2C(=O)c2cc(C3OCCc4ccc(Cl)cc43)c(Cl)s2)CC1O` (mixture of isomers) [I-282, [(1R,2S,4R)-4-{[5-({5-chloro-4-[(1R)-7-chloro-3,4-dihydro-1H-isochromen-1-yl]-2-thienyl}carbonyl)pyrimidin-4-yl]amino}-2-hydroxycyclopentyl]methyl sulfamate and [(1R,2S,4R)-4-{[5-({5-chloro-4-[(1S)-7-chloro-3,4-dihydro-1H-isochromen-1-yl]-2-thienyl}carbonyl)pyrimidin-4-yl]amino}-2-hydroxycyclopentyl]methyl sulfamate], the “Percent Inhibition” value under setting [1] worked out at 100%. For the same compound, the IC50 under setting [2] was less than 10 nM.

Take `Cc1sc(C(=O)c2cncnc2N[C@@H]2C[C@H](COS(N)(=O)=O)[C@@H](O)C2)cc1[C@@H]1OCCc2cccnc21` (mixture of isomers) [I-285, [(1R,2S,4R)-4-{[5-({4-[(8S)-5,8-dihydro-6H-pyrano[3,4-b]pyridin-8-yl]-5-methyl-2-thienyl}carbonyl)pyrimidin-4-yl]amino}-2-hydroxycyclopentyl]methyl sulfamate and [(1R,2S,4R)-4-{[5-({4-[(8R)-5,8-dihydro-6H-pyrano[3,4-b]pyridin-8-yl]-5-methyl-2-thienyl}carbonyl)pyrimidin-4-yl]amino}-2-hydroxycyclopentyl]methyl sulfamate]: under setting [1], the “Percent Inhibition” value was determined as 100%. Besides, the IC50 under setting [2] was less than 10 nM.

Regarding `Cc1sc(C(=O)c2cncnc2N[C@@H]2C[C@H](COS(N)(=O)=O)[C@@H](O)C2)cc1[C@@H]1OCCc2ccc(Cl)nc21` (mixture of isomers) [I-286, [(1R,2S,4R)-4-{[5-({4-[(8S)-2-chloro-5,8-dihydro-6H-pyrano[3,4-b]pyridin-8-yl]-5-methyl-2-thienyl}carbonyl)pyrimidin-4-yl]amino}-2-hydroxycyclopentyl]methyl sulfamate and [(1R,2S,4R)-4-{[5-({4-[(8R)-2-chloro-5,8-dihydro-6H-pyrano[3,4-b]pyridin-8-yl]-5-methyl-2-thienyl}carbonyl)pyrimidin-4-yl]amino}-2-hydroxycyclopentyl]methyl sulfamate], the “Percent Inhibition” value under setting [1] is 99%. For the same compound, under setting [2], the IC50 was less than 10 nM.

Usually IC50 stands for the midpoint of a concentration-inhibition curve.
